# Earlier results as cited in publication PMC5589077 (ACS chemical neuroscience, 2015).
# No end group written: not given here.
# Assays:
# [1] = system: nonhuman primates with established LID; settings: without reducing antiparkinsonian benefits; cited from earlier work
# α4β2-nAChR = settings: read-out: Ki at α4β2-nAChR; cited from earlier work
# rats [2] = settings: cited from earlier work
# α6/α3β2β3-nAChR [3] = settings: read-out: Ki at α6/α3β2β3-nAChR; cited from earlier work
# α6/α3β2β3-nAChR [4] = settings: calcium-flux, cited from earlier work
# rats [5] = settings: cited from earlier work; remark: listed apart in the source
# rats [6] = settings: rat, in vivo; cited from earlier work
molecule,measurement,setting,value
"O=C(C1CC1)N1CC2CC(C1)N2 [compound 8, 3-cyclopropylcarbonyl-3,6-dazabicyclo[3.1.1]heptane]",effect on L-dopa induced dyskinesia (LID),[1],ameliorated
same,Ki,α4β2-nAChR,3 nM
same,effect on abnormal involuntary movements (AIMs),rats [2],reduced abnormal involuntary movements
same,Ki,α6/α3β2β3-nAChR [3],21 nM
same,Emax at α6/α3β2β3-nAChR,α6/α3β2β3-nAChR [4],100%
same,EC50,α6/α3β2β3-nAChR [4]; read-out: EC50 at α6/α3β2β3-nAChR,80 nM
"Cc1ccc[n+](CCCCCCCCCC[n+]2cccc(C)c2)c1 [compound 9, N,N′-decane-diyl-bis-3-picolinium]",effect on nicotine SA,rats [5],reduce nicotine SA
"α-Ctx MII (GCCSNPVCHLEHSNLC; ends and bridges not checked; cysteine pairing not given here; UniProt P56636 49-64, looked up)",effect on established nicotine self-administration,rats [6],attenuated established nicotine self-administration
